For 55 molecules, IC50 results are on record in patent publication US7825264B2, “Substituted heterocycles, their use as medicament, and pharmaceutical preparations comprising them” (sanofi-aventis, priority 2005, dated 2010).

In this experiment the target is T1, Human Kv1.5 channels (Homo sapiens, UniProt P22460).
T1 construct: expressed in transfected cells; host or cells: Xenopus laevis oocytes injected with RNA synthesized in vitro
As to the kind of experiment: Activity on the Kv1.5 channel: two-microelectrode voltage clamp on Xenopus oocytes expressing Kv1.5. In kind it is cell-based. As to conditions: human Kv1.5 expressed in Xenopus oocytes, room temperature, Hill equation; read-out: Kv1.5 IC-50. As for the experimental part: Determination of the Activity on the Kv1.5 Channel
Human Kv1.5 channels were expressed in xenopus oocytes. For this purpose, firstly oocytes were isolated from Xenopus laevis and defolliculated. Kv1.5-encoding RNA synthesized in vitro was then injected into these oocytes. After Kv1.5 protein expression for 1-7 days, Kv1.5 currents were measured on the oocytes using the two-microelectrode voltage clamp technique. The Kv1.5 channels were in this case usually activated with voltage jumps lasting 500 ms to 0 mV and 40 mV. A solution of the following composition flowed through the bath: NaCl 96 mM, KCl 2 mM, CaCl2 1.8 mM, MgCl2 1 mM, HEPES 5 mM (titrated to pH 7.4 with NaOH). These experiments were carried out at room temperature. The following were employed for data acquisition and analysis: Geneclamp amplifier (Axon Instruments, Foster City, USA) and MacLab D/A converter and software (ADInstruments, Castle Hill, Australia). The substances of the invention were tested by adding them in various concentrations to the bath solution. The effects of the substances were calculated as percent inhibition of the Kv1.5 control current which was obtained when no substance was added to the solution. The data were then extrapolated using the Hill equation in order to determine the inhibitory concentrations IC50 for the respective substances.

pIC50: −log10 of the molar value.

T1 sequence (P22460 whole entry): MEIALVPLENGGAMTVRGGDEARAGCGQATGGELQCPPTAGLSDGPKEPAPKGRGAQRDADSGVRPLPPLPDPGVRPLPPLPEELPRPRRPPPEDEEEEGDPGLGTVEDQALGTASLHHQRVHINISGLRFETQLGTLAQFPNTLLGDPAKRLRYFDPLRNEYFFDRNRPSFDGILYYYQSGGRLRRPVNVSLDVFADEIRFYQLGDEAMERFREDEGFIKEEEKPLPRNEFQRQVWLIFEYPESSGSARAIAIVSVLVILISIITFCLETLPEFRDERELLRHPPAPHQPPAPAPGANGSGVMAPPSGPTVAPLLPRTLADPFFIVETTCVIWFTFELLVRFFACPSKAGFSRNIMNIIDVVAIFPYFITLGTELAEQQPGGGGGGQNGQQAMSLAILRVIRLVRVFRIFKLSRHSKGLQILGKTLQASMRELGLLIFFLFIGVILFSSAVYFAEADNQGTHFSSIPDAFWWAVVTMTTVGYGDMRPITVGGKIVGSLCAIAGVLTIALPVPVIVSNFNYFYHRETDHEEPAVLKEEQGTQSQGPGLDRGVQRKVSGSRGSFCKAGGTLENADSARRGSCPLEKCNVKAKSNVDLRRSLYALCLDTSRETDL

As for `N#Cc1ccc(OC(c2ccc(C#N)cc2)C(c2ccc(F)cc2)N2CCCC2=O)cc1` (stereo not shown) [Example 113], the pIC50 was around 5.00.
On to `CCCO[C@@H](c1ccccc1)[C@@H](c1ccccc1)N1CCCS1(=O)=O` [Example 54], for which the pIC50 was 5.77.
Turning to `COc1ccc([C@@H](OCC2CC2)[C@H](c2ccc(F)cc2)N2CCCC2=O)cc1` (racemic) [Example 73], the pIC50 is 6.00.
In the case of `CCCO[C@H](c1ccc(F)cc1)[C@H](c1ccccc1)N1CCCC1=O` (racemic) [Example 20], the pIC50 is 6.52.
`O=C1CCCN1[C@@H](c1ccccc1)[C@H](Oc1ccccn1)c1ccccc1` (racemic) [Example 70]: the pIC50 was 5.64.
With `O=C1CCCN1[C@@H](c1ccccc1)[C@H](OC1CC1)c1ccccc1` (racemic) [Example 32, 1S,2R-1-(Cyclopropoxy-1,2-diphenylethyl)pyrrolidin-2-one], the pIC50 was 6.22.
With `COc1ccc(CO[C@H](c2ccc(F)c(F)c2)[C@H](c2ccc(F)cc2)N2CCCC2=O)cc1` (racemic) [Example 48], the pIC50 was 5.68.
As for `O=C1CCCN1[C@@H](c1cccc2cccnc12)[C@H](OCC1CC1)c1cccnc1` (racemic) [Example 119], the pIC50 is 6.10.
Consider `COc1ccc([C@@H](Oc2ccc(C#N)cc2)[C@H](c2ccc(F)cc2)N2CCCC2=O)cc1` (racemic) [Example 59], for which the pIC50 was 5.72.
As to `N#Cc1ccc(CO[C@H](c2ccc(F)c(F)c2)[C@H](c2ccc(F)cc2)N2CCCC2=O)cc1` (racemic) [Example 69], the pIC50 was 5.80.
Turning to `O=C1CCCN1[C@H](c1ccccc1)[C@H](OCC1CC1)c1ccc(F)cc1` (racemic) [Example 21], the pIC50 is 6.10.
For the molecule `N#Cc1ccc(O[C@H](c2ccc(F)cc2)[C@H](c2ccc(F)cc2)N2CCCC2=O)cc1` (racemic) [Example 92], the pIC50 is 5.42.
On to `CCCO[C@H](c1ccccc1)[C@H](c1ccccn1)N1CCCC1=O` (racemic) [Example 71], for which the pIC50 was 5.80.
Under `CCCO[C@H](c1ccc(C#N)cc1)[C@H](c1ccc(F)cc1)N1CCCC1=O` (racemic) [Example 36] stands 6.22; under `CC#CCO[C@H](c1ccc(F)c(F)c1)[C@H](c1ccc(F)cc1)N1CCCC1=O` (racemic) [Example 62], 5.62; under `O=C1CCCN1[C@@H](c1ccc(F)cc1)[C@H](OC1CC1)c1ccc(F)c(F)c1` (racemic) [Example 49], 6.30.
Under `N#Cc1ccc(O[C@@H](c2cccc3ccccc23)[C@H](c2ccc(F)cc2)N2CCCC2=O)cc1` (racemic) [Example 89] stands 5.46; under `N#Cc1ccc(O[C@H](c2ccc(C(F)(F)F)cc2)[C@H](c2ccc(F)cc2)N2CCCC2=O)cc1` (racemic) [Example 116], around 5.00.
`O=C1CCCN1[C@@H](c1ccccc1)[C@H](OCC1CC1)c1ccncc1` (racemic) [Example 91]: the pIC50 was 5.40.
For `CO[C@H](c1ccc(F)c(F)c1)[C@H](c1ccc(F)cc1)N1CCCC1=O` (racemic) [Example 87], the pIC50 was 5.38.
In the case of `N#Cc1ccc(O[C@H](c2ccc(F)c(F)c2)[C@@H](c2ccc(F)cc2)N2CCCC2=O)cc1` (racemic) [Example 102], the pIC50 was 5.27.
With `COc1ccc(CO[C@H](c2ccc(F)cc2)[C@@H](c2ccc(F)cc2)N2CCCC2=O)cc1` (racemic) [Example 94], the pIC50 was 5.28.
`N#Cc1ccc(O[C@H](c2cccnc2)[C@H](c2cccc3cccnc23)N2CCCC2=O)cc1` (racemic) [Example 66]: the pIC50 is 5.64.
Turning to `O=C1CCCN1[C@H](c1ccc(F)cc1)[C@H](OCC1CC1)c1cccc2ccccc12` (racemic) [Example 12, 1-[(1R′,2R′)-2-Cyclopropylmethoxy-1-(4-fluorophenyl)-2-naphthalen-1-ylethyl]pyrrolidin-2-one], the pIC50 is 6.30.
As for `O=C1CCCN1[C@H](c1ccc(F)cc1)[C@@H](OCC1CC1)c1cccc2ccccc12` (racemic) [Example 11, 1-[(1S′,2R′)-2-Cyclopropylmethoxy-1-(4-fluorophenyl)-2-naphthalen-1-ylethyl]pyrrolidin-2-one], the pIC50 is 6.70.
`CCCO[C@H](c1ccccn1)[C@H](c1ccccc1)N1CCCC1=O` (racemic) [Example 76]: the pIC50 was 5.57.
As for `COc1ccc(CO[C@H](c2ccc(F)cc2)[C@@H](c2ccccc2)N2CCCC2=O)cc1` (racemic) [Example 95], the pIC50 was 5.28.
In the case of `N#Cc1ccc(O[C@@H](c2ccnc3ccccc23)[C@H](c2ccc(F)cc2)N2CCCC2=O)cc1` (racemic) [Example 109], the pIC50 was 5.02.
In the case of `O=C1CCCN1[C@H](c1ccc(F)cc1)[C@H](OCCCC(F)(F)F)c1ccc(F)cc1` (racemic) [Example 43], the pIC50 was 5.85.
For `COc1ccc(CO[C@H](c2ccc(F)c(F)c2)[C@H](c2cccnc2)N2CCCC2=O)cc1` (racemic) [Example 81], the pIC50 was 5.49.
In the case of `O=C1CCCN1[C@@H](c1ccc(F)cc1)[C@H](OCCCC(F)(F)F)C1CCCCC1` (racemic) [Example 24], the pIC50 is 6.19.
Turning to `O=C1CCCN1[C@@H](c1ccccc1)[C@H](OCc1ccc(Cl)cc1)c1ccc(Cl)cc1` (racemic) [Example 57], the pIC50 was 6.00.
For `O=C1CCCN1[C@@H](c1ccc(F)cc1)[C@H](OCC1CC1)c1cccnc1` (racemic) [Example 58], the pIC50 is 6.00.
`N#Cc1ccc(O[C@@H](c2cccc3cccnc23)[C@H](c2ccc(F)cc2)N2CCCC2=O)cc1` (racemic) [Example 10, 4-[(1R′,2R′)-2-(4-Fluorophenyl)-2-(2-oxopyrrolidin-1-yl)-1-quinolin-8-ylethoxy]benzonitrile]: the pIC50 is 5.36.
Regarding `C#CCO[C@H](c1ccc(F)c(F)c1)[C@H](c1ccc(F)cc1)N1CCCCC1=O` (racemic) [Example 30], the pIC50 is 5.96.
Under `O=C1CCCN1[C@@H](c1ccccc1)[C@H](OCCCC(F)(F)F)c1ccc(F)cc1` (racemic) [Example 51] stands 6.05; under `CCCO[C@@H](c1ccccc1)[C@@H](c1ccccc1)N1CCCC1=O` [Example 18], 6.40; under `O=C1CCCN1[C@@H](c1ccccc1)[C@H](OCC1CC1)c1ccc(F)cc1` (racemic) [Example 44], 6.30.
As to `C=CO[C@H](c1ccccc1)[C@H](c1ccccc1)N1CCCC1=O` [Example 120, 1 S,2R-1-(1,2-Diphenyl-2-vinyloxyethyl)pyrrolidin-2-one], the pIC50 is 6.10.
Regarding `COc1ccc(CO[C@H](c2ccc(Cl)cc2)[C@H](c2ccccc2)N2CCCC2=O)cc1` (racemic) [Example 60], the pIC50 is 5.89.
In the case of `O=S1(=O)CCCN1[C@H](c1ccccc1)[C@@H](OCC1CC1)c1ccccc1` [Example 52], the pIC50 is 5.70.
Under `CCCO[C@@H](c1ccc(F)cc1)[C@H](c1ccccc1)N1CCCC1=O` (racemic) [Example 25] stands 6.35.
Turning to `O=C1CCCN1[C@@H](c1cccc2cccnc12)[C@H](OCC1CC1)c1ccc(F)cc1` (racemic) [Example 3, 1-[(1R′,2S′)-2-Cyclopropylmethoxy-2-(4-fluorophenyl)-1-quinolin-8-ylethyl]-pyrrolidin-2-one], the pIC50 is 6.30.
In the case of `CCCO[C@H](c1ccccc1)[C@H](c1ccccc1)N1CCCS1(=O)=O` [Example 7, (1S,2R)-2-(1,2-Diphenyl-2-propoxyethyl)isothiazolidine-1,1-dioxide], the pIC50 was 6.22.
Next, `N#Cc1ccc(OC(c2ccnc3ccccc23)C(c2ccc(F)cc2)N2CCCC2=O)cc1` (stereo not shown) [Example 105]: 5.34.
As for `CS(=O)(=O)c1ccc([C@@H](OCC2CC2)[C@H](c2ccc(F)cc2)N2CCCC2=O)cc1` (racemic) [Example 61], the pIC50 was 5.74.
Turning to `CCCOC(c1ccc(OC)cc1)C(c1ccccc1)N1CCCC1=O` (stereo not shown) [Example 23], the pIC50 was 6.19.
`O=C1CCCN1[C@@H](c1ccccn1)[C@H](OCC1CC1)c1ccccc1` (racemic) [Example 5, 1-[(1R′,2S′)-2-Cyclopropylmethoxy-2-phenyl-1-pyridin-2-ylethyl]pyrrolidin-2-one]: the pIC50 was 5.89.
Next, `CO[C@H](c1ccc(Cl)cc1)[C@H](c1ccccc1)N1CCCCC1=O` (racemic) [Example 67]: 5.92.
Next, `CCCO[C@@H](c1ccc(Cl)cc1)[C@H](c1ccccc1)N1CCCC1=O` (racemic) [Example 28]: 6.05; `COc1ccc(CO[C@H](c2cccnc2)[C@H](c2ccc(F)cc2)N2CCCC2=O)cc1` (racemic) [Example 86]: 5.54; `O=C1CCCN1[C@@H](c1ccc(F)cc1)[C@H](OCC1CC1)c1cc(F)cc(F)c1` (racemic) [Example 37]: 6.15.
Next, `CCCO[C@H](c1ccncc1)[C@H](c1ccccc1)N1CCCC1=O` (racemic) [Example 97]: 5.27.
Turning to `CO[C@H](c1ccc(F)c(F)c1)[C@H](c1ccc(F)cc1)N1CCCCC1=O` (racemic) [Example 99], the pIC50 was 5.20.
Consider `O=C1CCCN1[C@@H](c1cccnc1)[C@H](OCc1ccc(Cl)cc1)c1ccc(F)c(F)c1` (racemic) [Example 100], for which the pIC50 was 5.27.
